Columns and labels:
Assay in all cases: relative viability (nuclei count vs DMSO), 5 days (fraction); higher = more cells survive
[1] = compound: C1=CC=C(C(=C1)C2=CC=C(C=C2)C3=CSC4=C3C(=C(C(=O)N4)C#N)O)O + CC(=O)c1c(C)c2cnc(Nc3ccc(N4CCNCC4)cn3)nc2n(C2CCCC2)c1=O [Palbociclib] (partner 0.5 µM)
In short: (§1)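 Cells from lung cancer lines were seeded into 1536-well plates and, one day later, dosed by pin tool. Treatments were either a single drug or a fixed dose of an anchor drug with five library-drug doses (not always all listed) in √10 steps. After 5 days, nuclei were stained in a one-step fixation (final 0.05% Triton X-100, 1% formaldehyde, 1 ug/ml Hoechst) and counted on 4× images, and relative viability is the treated-to-vehicle nuclei ratio, as the median of duplicate plates.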

[2] = compound: O=C(CCCCCCNC(=O)c1cnc(N(c2ccccc2)c2ccccc2)nc1)NO [Ricolinostat] + CC1(C)CCC(c2ccc(Cl)cc2)=C(CN2CCN(c3ccc(C(=O)NS(=O)(=O)c4ccc(N[C@H](CCN5CCOCC5)CSc5ccccc5)c(S(=O)(=O)C(F)(F)F)c4)cc3)CC2)C1 [Navitoclax] (partner 0.5 µM)
In short: as §1

[3] = compound: C1=CC=C(C(=C1)C2=CC=C(C=C2)C3=CSC4=C3C(=C(C(=O)N4)C#N)O)O + O=C(c1cc(Cc2n[nH]c(=O)c3ccccc23)ccc1F)N1CCN(C(=O)C2CC2)CC1 [Olaparib] (partner 8 µM)
In short: as §1

[4] = compound: O=C(CCCCCCNC(=O)c1cnc(N(c2ccccc2)c2ccccc2)nc1)NO [Ricolinostat] + NC(=O)Nc1cc(-c2cccc(F)c2)sc1C(=O)N[C@H]1CCCNC1 [AZD7762] (partner 0.2 µM)
In short: as §1

| Cell Line | relative viability ([1]; first compound 0.08 µM) | relative viability ([1]; first compound 0.253 µM) | relative viability ([1]; first compound 0.8 µM) | relative viability ([1]; first compound 2.53 µM) | relative viability ([1]; first compound 8 µM) | relative viability ([2]; first compound 0.08 µM) | relative viability ([2]; first compound 0.253 µM) | relative viability ([2]; first compound 0.8 µM) | relative viability ([2]; first compound 2.53 µM) | relative viability ([3]; first compound 0.08 µM) | relative viability ([3]; first compound 0.253 µM) | relative viability ([3]; first compound 0.8 µM) | relative viability ([3]; first compound 2.53 µM) | relative viability ([3]; first compound 8 µM) | relative viability ([4]; first compound 0.08 µM) | relative viability ([4]; first compound 0.253 µM) | relative viability ([4]; first compound 0.8 µM) | relative viability ([4]; first compound 2.53 µM) |
| --- | --- | --- | --- | --- | --- | --- | --- | --- | --- | --- | --- | --- | --- | --- | --- | --- | --- | --- |
| NCI-H2009 | 0.19 | 0.196 | 0.174 | 0.22 | 0.228 | 1.14 | 1.11 | 1.09 | 1.07 | 0.649 | 0.668 | 0.924 | 0.591 | 0.714 | – | – | – | – |
| NCI-H2342 | 0.538 | 0.513 | 0.538 | 0.488 | 0.529 | – | – | – | – | 0.475 | 0.53 | 0.432 | 0.517 | 0.395 | 0.413 | 0.443 | 0.531 | 0.451 |
| NCI-H1650 | 0.23 | 0.332 | 0.317 | 0.31 | 0.31 | 0.948 | 1.19 | 1.12 | 0.82 | 0.716 | 1.03 | 0.742 | 0.759 | 0.645 | – | – | – | – |
| LCLC-103H | 0.445 | 0.407 | 0.451 | 0.491 | 0.449 | – | – | – | – | 0.605 | 0.684 | 0.789 | 0.832 | 0.718 | 0.694 | 0.754 | 0.749 | 0.626 |
| NCI-H1299 | – | – | – | – | – | 0.987 | 0.987 | 1.02 | 1.01 | 1.01 | 0.992 | 0.959 | 0.942 | 0.967 | – | – | – | – |
| UMC-11 | 0.369 | 0.374 | 0.336 | 0.345 | 0.366 | 0.31 | 0.343 | 0.267 | 0.158 | – | 0.396 | 0.435 | 0.425 | 0.417 | – | – | – | – |
| SK-LU-1 | 0.35 | 0.37 | 0.378 | 0.389 | 0.355 | 0.863 | 0.816 | 0.642 | 0.502 | 0.465 | 0.431 | 0.435 | 0.608 | 0.408 | – | – | – | – |
| NCI-H1648 | – | 0.282 | 0.319 | 0.261 | 0.274 | – | – | – | – | – | 0.689 | 0.841 | 0.31 | 0.722 | – | 0.651 | 0.524 | 0.494 |
| EBC-1 | – | – | – | – | – | 0.375 | 0.358 | 0.304 | 0.172 | 0.741 | 0.701 | 0.664 | 0.719 | 0.587 | – | – | – | – |
| NCI-H2228 | 0.687 | 0.6 | 0.747 | 0.759 | 0.6 | 0.951 | 0.987 | 0.8 | 0.693 | 0.425 | 0.604 | 0.568 | 0.613 | 0.575 | – | – | – | – |
| ABC-1 | 0.615 | 0.921 | 0.804 | 0.591 | 0.433 | – | – | – | – | 0.856 | 1.22 | 1.06 | 0.701 | 0.829 | 0.945 | 0.788 | 0.748 | 0.617 |
| SK-MES-1 | 0.296 | 0.305 | 0.306 | 0.305 | 0.315 | 1.07 | 1.22 | 1.21 | 1.23 | 0.863 | 0.816 | 0.858 | 0.651 | 0.611 | – | – | – | – |
| NCI-H522 | 0.943 | 1.06 | 0.916 | 0.944 | 0.881 | – | – | – | – | 0.567 | 0.674 | 0.778 | 0.56 | 0.645 | 0.877 | 0.838 | 0.853 | 0.822 |
| Calu-6 | – | – | – | – | – | 0.801 | 0.852 | 0.803 | 0.783 | 0.721 | 0.595 | 0.643 | 0.63 | 0.615 | – | – | – | – |
| NCI-H358 | 0.13 | 0.17 | 0.124 | 0.135 | 0.123 | – | – | – | – | 0.4 | 0.654 | 0.531 | 0.562 | 0.587 | – | 0.519 | 0.414 | 0.312 |
| NCI-H2023 | 0.334 | 0.35 | 0.324 | 0.41 | 0.376 | 0.849 | 1.01 | 0.995 | 0.906 | 0.467 | 0.49 | 0.495 | 0.487 | 0.607 | – | – | – | – |
| COR-L 105 | 0.431 | 0.403 | 0.419 | 0.401 | 0.42 | 0.688 | 0.833 | 0.828 | 0.722 | 0.695 | 0.793 | 1.03 | 0.688 | 0.859 | – | – | – | – |
| COR-L23 | 0.297 | 0.384 | 0.374 | 0.323 | 0.243 | 0.943 | 1.07 | 0.978 | 0.511 | 0.318 | 0.343 | 0.32 | 0.365 | 0.322 | – | – | – | – |
| NCI-H520 | 0.235 | 0.212 | 0.223 | 0.226 | 0.206 | – | 1.11 | 1.01 | 1.02 | 0.283 | 0.318 | 0.363 | 0.365 | 0.347 | – | – | – | – |
| A549 | – | – | – | – | – | 1.07 | 1.18 | 1.1 | 1.21 | 0.275 | 0.208 | 0.314 | 0.375 | 0.379 | – | – | – | – |
| SW 1573 | 0.366 | 0.378 | 0.447 | 0.396 | 0.321 | 0.807 | 0.993 | 0.901 | 1.01 | 0.51 | 0.464 | 0.502 | 0.439 | 0.384 | – | – | – | – |
| NCI-H661 | 0.426 | 0.419 | 0.392 | 0.394 | 0.391 | – | – | – | – | 0.64 | 0.799 | 0.724 | 0.843 | 0.708 | – | – | – | – |
| IA-LM | – | – | – | – | – | 0.802 | 0.626 | 0.747 | 0.603 | 0.799 | 0.967 | 0.9 | 0.799 | 0.771 | – | – | – | – |
